Measurements reported in the supplement of paper PMC10307832.

Columns and labels:
Test in all cases: relative viability (nuclei count vs DMSO), 5 days (fraction); higher = more cells survive
[1] = compound: CC1CC(=O)N(C2=CN=C(N=C2N1C3CCCC3)NC4=C(C=C(C=C4)C(=O)NC5CCN(CC5)C)OC)C [NPK76-II-72-1] + Nc1nc2[nH]cc(CCc3ccc(C(=O)N[C@@H](CCC(=O)O)C(=O)O)cc3)c2c(=O)[nH]1 [Pemetrexed] (partner 0.2 µM)
In short: (§1)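 Lung cancer cell lines were pin-tool dosed in 1536-well plates on the day after seeding, with either a lone drug or a fixed anchor-drug dose plus five library-drug doses (not always all listed) in √10 steps. Nuclei were counted on 4× images after 5 days. Relative viability is the ratio of treated-well to vehicle-well nuclei counts, with each value a median of duplicate plates.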

[2] = compound: CC1CC(=O)N(C2=CN=C(N=C2N1C3CCCC3)NC4=C(C=C(C=C4)C(=O)NC5CCN(CC5)C)OC)C [NPK76-II-72-1] + CCNC(=O)c1noc(-c2cc(C(C)C)c(O)cc2O)c1-c1ccc(CN2CCOCC2)cc1 [Luminespib] (partner 0.01 µM)
In short: as §1

[3] = compound: CC1CC(=O)N(C2=CN=C(N=C2N1C3CCCC3)NC4=C(C=C(C=C4)C(=O)NC5CCN(CC5)C)OC)C [NPK76-II-72-1] + C[C@@H](Oc1cc(-c2cnn(C3CCNCC3)c2)cnc1N)c1c(Cl)ccc(F)c1Cl [Crizotinib] (partner 1 µM)
In short: as §1

[4] = compound: CC[C@@H]1C(=O)N(C)c2cnc(Nc3ccc(C(=O)NC4CCN(C)CC4)cc3OC)nc2N1C1CCCC1 [BI-2536] + COc1cccc2cc(-c3nc([C@H]4CC[C@H](C(=O)O)CC4)n4ncnc(N)c34)[nH]c12 [OSI-027] (partner 0.5 µM)
In short: as §1

| Cell Line | relative viability ([1]; first compound 0.01 µM) | relative viability ([1]; first compound 0.03162 µM) | relative viability ([1]; first compound 0.1 µM) | relative viability ([1]; first compound 0.3162 µM) | relative viability ([1]; first compound 1 µM) | relative viability ([2]; first compound 0.01 µM) | relative viability ([2]; first compound 0.03162 µM) | relative viability ([2]; first compound 0.1 µM) | relative viability ([2]; first compound 0.3162 µM) | relative viability ([2]; first compound 1 µM) | relative viability ([3]; first compound 0.01 µM) | relative viability ([3]; first compound 0.03162 µM) | relative viability ([3]; first compound 0.1 µM) | relative viability ([3]; first compound 0.3162 µM) | relative viability ([3]; first compound 1 µM) | relative viability ([4]; first compound 0.01 µM) | relative viability ([4]; first compound 0.03162 µM) | relative viability ([4]; first compound 0.1 µM) | relative viability ([4]; first compound 0.3162 µM) | relative viability ([4]; first compound 1 µM) |
| --- | --- | --- | --- | --- | --- | --- | --- | --- | --- | --- | --- | --- | --- | --- | --- | --- | --- | --- | --- | --- |
| BEN | 0.794 | 0.683 | 0.739 | 0.755 | 0.934 | 0.326 | 0.332 | 0.325 | 0.403 | 0.329 | 0.89 | 1.07 | 0.908 | 0.77 | 0.893 | 0.312 | 0.261 | 0.272 | 0.233 | 0.169 |
| ChaGo-K-1 | 0.243 | 0.259 | 0.261 | 0.246 | 0.257 | 0.624 | 0.616 | 0.695 | 0.523 | 0.67 | 1.11 | 1.18 | 1.11 | 1.12 | 1.19 | 0.661 | 0.577 | 0.253 | 0.136 | 0.155 |
| LK-2 | 0.228 | 0.292 | 0.334 | 0.235 | 0.271 | 0.183 | 0.214 | 0.215 | 0.191 | 0.191 | 0.22 | 0.247 | 0.238 | – | 0.241 | 0.202 | 0.183 | 0.169 | 0.158 | 0.151 |
| NCI-H322M | 0.606 | 0.566 | 0.601 | 0.539 | 0.595 | 0.818 | 0.826 | 0.943 | 0.783 | 1.01 | 0.968 | 0.944 | 0.868 | 0.873 | 0.983 | 0.52 | 0.52 | 0.37 | 0.411 | 0.305 |
| NCI-H520 | 0.575 | 0.741 | 0.427 | 0.65 | 0.825 | 0.206 | 0.24 | 0.285 | 0.181 | 0.245 | 0.713 | 0.914 | 0.716 | 0.75 | 0.751 | 0.277 | 0.289 | 0.195 | 0.292 | 0.2 |
| NCI-H1666 | 0.844 | 0.802 | 0.88 | 0.78 | 0.917 | 0.977 | 1.03 | 0.987 | 0.924 | 1.06 | 0.855 | 1.03 | 0.92 | 0.917 | 1.09 | 0.881 | 0.842 | 0.686 | 0.378 | 0.311 |
| NCI-H1993 | 0.515 | 0.566 | 0.474 | 0.566 | 0.644 | 0.848 | 0.87 | 0.925 | 0.764 | 0.818 | 0.912 | 0.839 | 0.791 | 0.722 | 0.977 | 0.521 | 0.481 | 0.519 | 0.484 | 0.453 |
| NCI-H1975 | 0.261 | 0.288 | 0.274 | 0.297 | 0.303 | 0.23 | 0.196 | 0.183 | 0.243 | 0.294 | 0.939 | 0.965 | 0.914 | 0.876 | 0.95 | 0.628 | 0.623 | 0.515 | 0.125 | 0.107 |
| HCC-44 | 0.65 | 0.689 | 0.613 | 0.619 | 0.684 | 0.977 | 1.26 | 0.996 | 1.02 | 1.2 | 0.734 | 0.772 | 0.827 | 0.795 | 0.846 | 0.483 | 0.527 | 0.13 | 0.135 | 0.12 |
